The values that follow come from patent US20240075036A1, “THERAPEUTIC COMBINATIONS INCLUDING INHIBITORS OF THE P2X4 RECEPTOR FOR TREATING AND PREVENTING PROLIFERATIVE DISORDERS” (CHEMOTHERAPEUTISCHES FORSCHUNGSINSTITUT GEORG-SPEYER-HAUS, priority 2021, published 2024).

The structures appear in SMILES notation.

The target of one data set is T1, rat P2X4 receptor (Rattus norvegicus, UniProt P51577).
T1 sequence (P51577 1-388): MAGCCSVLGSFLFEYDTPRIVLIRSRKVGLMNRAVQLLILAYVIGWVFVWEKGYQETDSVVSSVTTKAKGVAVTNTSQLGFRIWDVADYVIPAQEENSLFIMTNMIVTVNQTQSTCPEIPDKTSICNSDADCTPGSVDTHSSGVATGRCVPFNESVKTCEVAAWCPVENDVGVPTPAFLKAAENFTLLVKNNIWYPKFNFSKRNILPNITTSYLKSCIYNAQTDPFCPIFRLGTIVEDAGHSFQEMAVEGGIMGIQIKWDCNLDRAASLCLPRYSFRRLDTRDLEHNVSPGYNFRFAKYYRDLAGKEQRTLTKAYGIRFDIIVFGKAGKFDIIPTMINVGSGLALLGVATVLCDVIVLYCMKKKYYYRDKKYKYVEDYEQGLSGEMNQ
As to conditions: cited from earlier work.

Data set [1] deals with S6 ribosomal protein phosphorylation (mTOR signaling). The data set is described as follows: Immunoblot analysis of survival pathways / S6 phosphorylation in AOM/DSS tumor organoids. Format: cell-based, mice. The settings on record: ATP (100 μM) in presence of inhibitor; AOM/DSS tumor organoids. In general terms: In western blotting, separated proteins are transferred to a membrane and probed.
Experimental: Data are mean±SD, n=7. *p<0.05 by two-tailed Student's t-test. c, Immunoblot analysis of Lgr5EGFP-DTR(−) tumor organoids treated with ATP (100 μM), 2MeS ADP (100 μM) and adenosine (100 μM) for 30 min. […] Data are mean±SD, n=4 replicates. […] Data are mean±SD, n=3 replicates. One representative of three experiment performed is shown. n.s. p>0,05, *p<0.05***, p<0.001, ****p<0.0001 by 1-way ANOVA with Bonferroni's multiple comparison test. 1, Immunoblot analysis of doxycycline inducible P2x4 knockdown APTAK colon tumor organoids treated with 5-FU (20 μM). Organoids were cultured in medium−/+doxycycline prior to the experiment. […] Organoids were cultured in medium−/+doxycycline prior to the experiment. […] Data are mean±SD, n=3.
In vitro Lgr5+ cells ablation experiments, organoids were treated with 20 ng/ml DT (Millipore, #322326) in the culture medium. For human LGR5+ cells ablation, we treated LGR5-iCT organoids with 500 nM BB homodimerizer. Other treatments were performed as described in each figure legends.

Data set [2] has as its system patient-derived tumor organoids (PDTO) from pancreatic ductal adenocarcinoma. As to conditions: P2X4 inhibitor 5-BDBD combined with 5-FU.
The subject of another data set is APTAK tumor organoids. Put plainly: APTAK tumor organoids: S6 phosphorylation and organoid survival. Format: cell-based, mice. As to conditions: P2x4 inhibitor in combination with 5-FU compared to each treatment alone.
For data set [3], the system named is AOM/DSSATKN tumor organoids. As to conditions: P2x4 inhibitor in combination with 5-FU (20 μM) compared to each treatment alone; AOM/DSS tumor organoids.
Text: Percentage of reseeding capacity compared to vehicle treated organoids is indicated. Data are mean±SD, n=4 replicates. […] Percentage of reseeding capacity compared to vehicle treated organoids is indicated.
The subject of another data set is PC3 and C4-2B4 cells. The settings on record: selective P2XR4 antagonists; cited from earlier work.
For data set [4], the system named is ectopic patient-derived colon tumor. As to conditions: irinotecan and AZD2014 combination; cited from earlier work.
A further data set concerns SW480 cells. As to conditions: irinotecan and AZD2014 combination; orthotopic implantation; cited from earlier work.
The test system of data set [5] is advanced colorectal cancer. As to conditions: treatment of advanced colorectal cancer; cited from earlier work.
Data set [6] relates to refractory metastatic colorectal cancer / refractory solid tumors. As to conditions: cited from earlier work.
Setting [7] is: 24 patients with refractory metastatic colorectal cancer, everolimus combination cohorts.

Experimental for APTAK tumor organoids: Organoids were cultured in medium−/+doxycycline prior to the experiment. […] Organoids were cultured in medium−/+doxycycline prior to the experiment.
Colon tumor organoids were cultured as previously described (27). AOM/DSS induced colon tumors were harvested by opening the colon longitudinally and dissociated enzymatically for 30-40 min in digestion media containing 1 mg/ml collagenase I (Sigma-Aldrich), 0.5 mg/ml Dispase (Roche), 50 μg/ml DNase (Sigma-Aldrich) in RPMI medium containing 2% FCS. Supernatant was washed and filtered through a 70 μM cell strainer. Cells were then embedded in Matrigel (Corning, #356231) and cultured in Advanced Dulbecco's modified Eagle's medium/F12 (Invitrogen, #12634-028) supplemented with Glutamax (Invitrogen, #35050038), Hepes (Invitrogen, #15630056), Pen/Strep (Invitrogen, #15140122), N2 supplement (Invitrogen, #17502048), B27supplement (Invitrogen, #17504044) and n-Acetylcysteine (Sigma-Aldrich, #A91165). EGF (Invitrogen, #PMG8045), RspoI and noggin were added as niche factor.

As for `O=C1CN=C(c2cccc(Br)c2)c2oc3ccccc3c2N1` [5-BDBD, 5-(3-bromophenyl)-1,3-dihydro-2H-benzofuro[3,2-e]-1,4-diazepin-2-one], the “antagonist action on ATP-induced currents” value on rat P2X4 receptor is on record as “specific P2X4R antagonist”. Moreover, the “ATP induced phosphorylation of S6” value in data set [1] was “reduced phosphorylation of S6 by ATP”. In addition, the tumor organoid survival result in data set [2] was “sensitizes tumor organoids to 5-FU administration and leads to reduced tumor organoid survival”. Moreover, the organoid survival result (in the data set on APTAK tumor organoids; in data set [3]) was “decreased organoid survival” throughout. In the data set with PC3 and C4-2B4 cells, the “growth, mobility and apoptosis of PCa cells” value was “impaired the growth and mobility of PCa cells but not apoptosis”.

With `CNC(=O)c1cccc(-c2ccc3c(N4CCOC[C@@H]4C)nc(N4CCOC[C@@H]4C)nc3n2)c1` [AZD2014], the tumor growth result in data set [4] is on record as “drastically reduced ectopic patient-derived colon tumor growth”. Further, the “liver and lung metastases” value in the data set with SW480 cells was “totally inhibited liver and lung metastases”.

For the compound `CO[C@H]1C[C@@H]2CC[C@@H](C)[C@@](O)(O2)C(=O)C(=O)N2CCCC[C@H]2C(=O)O[C@H]([C@H](C)C[C@@H]2CC[C@@H](OCCO)[C@H](OC)C2)CC(=O)[C@H](C)/C=C(\C)[C@@H](O)[C@@H](OC)C(=O)[C@H](C)C[C@H](C)/C=C/C=C/C=C/1C` [everolimus], the clinical activity entry in data set [5] is “limited clinical activity”. In addition, in [6] (setting [7]), the “median time on treatment” value is 2.7 months and the “patients remaining on treatment with stable disease for at least 3 months” value is 45%. For the same compound, the safety and tolerability entry in data set [6] (everolimus in addition to 5-FU/LV and mFOLFOX6) was “appears safe and tolerable”.
